From the supplement of paper PMC7224384

Tests used:
MDA-MB-453 [1] = experiment: drug sensitivity score (DSS), single agent (DSS (weighted AUC score)); higher = more sensitive (stronger viability decrease); extreme values may be limits of the assay; details: BLU9931 0 nM; 72 h
Summary of the method: (§1)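 Drug sensitivity scores come from a weighted area under a four-parameter logistic fit to percent viability, normalised per plate to control wells. Viability was based on cellular ATP read with CellTiterGlo 2.0 after 72 h at 37 °C, 5% CO2. Each 384-well plate carried FIMM Oncology set compounds in singlicate at five 10-fold dilutions, with 2000 MDA-MB-453 cells per well in medium with or without an FGFR4 inhibitor at 100 nM final.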

MDA-MB-453 [2] = experiment: drug sensitivity score (DSS), in combination with BLU9931 (DSS (weighted AUC score)); higher = more sensitive (stronger viability decrease); extreme values may be limits of the assay; details: BLU9931 100 nM; 72 h
Summary of the method: as §1

| Structure (SMILES) | drug sensitivity score (MDA-MB-453 [1]) | drug sensitivity score (MDA-MB-453 [2]) |
| --- | --- | --- |
| CC[C@@H]1C(=O)N(C)c2cnc(Nc3ccc(C(=O)NC4CCN(C)CC4)cc3OC)nc2N1C1CCCC1 [BI 2536] | 10.4 | 9.2 |
| COc1c(C)cnc(Cn2cnc3c(Cl)nc(N)nc32)c1C [BIIB021] | 19.5 | 20.1 |
| CC1(C)C(C(=O)Nc2ccc(S(=O)(=O)c3ccc(NC(=O)C4C(C)(C)C4(C)C)cc3)cc2)C1(C)C [BRD7116] | 4.5 | 3.9 |
| O=C(Nc1cccc(Nc2ncc(Br)c(NCCc3cnc[nH]3)n2)c1)N1CCCC1 [BX-912] | 4.5 | 3.8 |
| Cc1ccc(NC(=O)c2ccc(CN3CC[C@H](N(C)C)C3)c(C(F)(F)F)c2)cc1Nc1nccc(-c2cncnc2)n1 [Bafetinib] | 0 | 0 |
| CCS(=O)(=O)N1CC(CC#N)(n2cc(-c3ncnc4[nH]ccc34)cn2)C1 [Baricitinib] | 0 | 0 |
| O=C(/C=C/c1cccc(S(=O)(=O)Nc2ccccc2)c1)NO [Belinostat] | 21.3 | 20.2 |
| N#CC(c1ccnc(OCc2ccc(CN3CCOCC3)cc2)n1)c1nc2ccccc2s1 (stereo not given) [Bentamapimod] | 2.6 | 1.3 |
| C=C(c1ccc(C(=O)O)cc1)c1cc2c(cc1C)C(C)(C)CCC2(C)C [Bexarotene] | 0 | 0 |
| CC(O)(CS(=O)(=O)c1ccc(F)cc1)C(=O)Nc1ccc(C#N)c(C(F)(F)F)c1 (stereo not given) [Bicalutamide] | 2.3 | 2.3 |
| CCNC(=O)CCC/C=C\C[C@@H]1[C@@H](/C=C/[C@@H](O)CCc2ccccc2)[C@H](O)C[C@@H]1O [Bimatoprost] | 0 | 0 |
| Cn1cnc2c(F)c(Nc3ccc(Br)cc3F)c(C(=O)NOCCO)cc21 [Binimetinib] | 0 | 0.2 |
| Cc1sc2c(c1C)C(c1ccc(Cl)cc1)=N[C@@H](CC(=O)Nc1ccc(O)cc1)c1nnc(C)n1-2 [Birabresib] | 15.2 | 15.2 |
| CC[C@H](NC(=O)[C@H](C)NC)C(=O)N1C[C@@H](O)C[C@H]1Cc1c(-c2[nH]c3cc(F)ccc3c2C[C@@H]2C[C@H](O)CN2C(=O)[C@H](CC)NC(=O)[C@H](C)NC)[nH]c2cc(F)ccc12 [Birinapant] | 10.1 | 15.8 |
| Cc1c(N)nc([C@H](CC(N)=O)NC[C@H](N)C(N)=O)nc1C(=O)N[C@H](C(=O)N[C@H](C)[C@@H](O)[C@H](C)C(=O)N[C@H](C(=O)NCCc1nc(-c2nc(C(=O)NCCC[S+](C)C)cs2)cs1)[C@@H](C)O)[C@@H](OC1OC(CO)C(O)C(O)C1OC1OC(CO)C(O)C(OC(N)=O)C1O)c1cnc[nH]1 (stereo not given in full) [Bleomycin] | 0 | 0 |
| CC(C)C[C@H](NC(=O)[C@H](Cc1ccccc1)NC(=O)c1cnccn1)B(O)O [Bortezomib] | 21.3 | 20.1 |
| COc1cc(Nc2c(C#N)cnc3cc(OCCCN4CCN(C)CC4)c(OC)cc23)c(Cl)cc1Cl [Bosutinib] | 5 | 4.6 |
| COc1cc(N2CCC(N3CCN(C)CC3)CC2)ccc1Nc1ncc(Cl)c(Nc2ccccc2P(C)(C)=O)n1 [Brigatinib] | 2.4 | 2 |
| Cc1cc2c(F)c(Oc3ncnn4cc(OC[C@@H](C)O)c(C)c34)ccc2[nH]1 [Brivanib] | 0 | 0 |
| CCC/C=C/C=C/C(=O)O[C@H]1/C(=C/C(=O)OC)C[C@H]2C[C@H]([C@@H](C)O)OC(=O)C[C@H](O)C[C@@H]3C[C@H](OC(C)=O)C(C)(C)[C@](O)(C[C@@H]4C/C(=C/C(=O)OC)C[C@H](/C=C/C(C)(C)[C@]1(O)O2)O4)O3 [Bryostatin 1] | 7.9 | 2.3 |

| Structure (SMILES) | drug sensitivity score (MDA-MB-453 [1]) | drug sensitivity score (MDA-MB-453 [2]) |
| --- | --- | --- |
| Nc1cc(C(F)(F)F)c(-c2cc(N3CCOCC3)nc(N3CCOCC3)n2)cn1 [Buparlisib] | 11.3 | 11.9 |
| Cc1nc2cccc(N)c2c(=O)n1C1CCC(=O)NC1=O (stereo not given) [CC122] | 0 | 0 |
| CCN1C(=O)CNc2ncc(-c3ccc(-c4nc[nH]n4)nc3C)nc21 [CC-115] | 12.2 | 12.5 |
| CO[C@H]1CC[C@H](N2C(=O)CNc3ncc(-c4ccc(C(C)(C)O)nc4)nc32)CC1 [CC-223] | 6.1 | 6 |
| COc1cc(C)[nH]c(=O)c1CNC(=O)c1c(C)n([C@H](C)C2CCOCC2)c2ccccc12 [CPI-360] | 0 | 0 |
| Cc1noc2c1-c1ccccc1C(c1ccc(Cl)cc1)=N[C@H]2CC(N)=O [CPI-0610] | 9.4 | 10 |
| O=C(O)CCCCC(CCSCc1ccccc1)SCc1ccccc1 (stereo not given) [CPI-613] | 0 | 0 |
| CN(C)c1cc2c(cc1Sc1nc3c(N)nccc3n1CCNCC(C)(C)C)OCO2 [CUDC-305] | 17.6 | 15.9 |
| COc1ccc(-c2nc(N3CCOCC3)c3sc(CN(C)c4ncc(C(=O)NO)cn4)cc3n2)cn1 [CUDC-907] | 38.8 | 40 |
| CO[C@H]1C(=O)[C@]2(C)[C@@H](OC)C[C@H]3OC[C@@]3(OC(C)=O)[C@H]2[C@H](OC(=O)c2ccccc2)[C@]2(O)C[C@H](OC(=O)[C@H](O)[C@@H](NC(=O)OC(C)(C)C)c3ccccc3)C(C)=C1C2(C)C [Cabazitaxel] | 14.6 | 8.8 |
| COc1cc2nccc(Oc3ccc(NC(=O)C4(C(=O)Nc5ccc(F)cc5)CC4)cc3)c2cc1OC [Cabozantinib] | 1.3 | 1.6 |
| C=CC(=O)Nc1cc2c(Nc3ccc(F)c(Cl)c3)ncnc2cc1OCCCN1CCOCC1 [Canertinib] | 15.5 | 17.8 |
| CCCCCOC(=O)Nc1nc(=O)n([C@@H]2O[C@H](C)[C@@H](O)[C@H]2O)cc1F [Capecitabine] | 2.3 | 0.2 |
| CNC(=O)c1ccc(-c2cnc3ncc(Cc4ccc5ncccc5c4)n3n2)cc1F [Capmatinib] | 0 | 0 |
| O=C(O)C1(C(=O)O)CCC1.[NH2-].[NH2-].[Pt+2] [Carboplatin] | 2.2 | 2.6 |
| CC(C)C[C@H](NC(=O)[C@H](CCc1ccccc1)NC(=O)CN1CCOCC1)C(=O)N[C@@H](Cc1ccccc1)C(=O)N[C@@H](CC(C)C)C(=O)[C@@]1(C)CO1 [Carfilzomib] | 24.5 | 22.9 |
| COc1cc2c(Oc3ccc4[nH]c(C)cc4c3F)ncnc2cc1OCCCN1CCCC1 [Cediranib] | 0 | 0 |
| Cc1ccc(-c2cc(C(F)(F)F)nn2-c2ccc(S(N)(=O)=O)cc2)cc1 [Celecoxib] | 0.4 | 0 |
| CCS(=O)(=O)N1CCN(c2ccc(Nc3ncc(C(N)=O)c(NC4CC4)n3)cc2)CC1 [Cerdulatinib] | 4.4 | 0.3 |
| Cc1cc(Nc2ncc(Cl)c(Nc3ccccc3S(=O)(=O)C(C)C)n2)c(OC(C)C)cc1C1CCNCC1 [Ceritinib] | 1.8 | 1.9 |
